Data as given in US20040096815A1, “Method of identifying an eventual modification of at least one biological parameter making use of living cells which are subjected to a stress and living cells which are not subjected to this same stress” (COLETICA, priority 2002, published 2004).

Tests used:
[1] = system: normal human keratinocytes in monolayer; experiment: hBD2 and hBD3 expression (RT-PCR, band intensity vs actin) in keratinocytes in monolayer; format: cell-based; conditions: 100 ng/ml, 16 hours
Description: The normal human keratinocytes are cultivated in monolayer on 96-wells culture plates, in a defined medium without serum and enriched with calcium (final concentration 1.7 mM).
At 80% of confluence, the cells are placed in contact with a chemical stress, i.e. molecules which mimic a microbial attack, such as TNFα (100 ng/ml) or IFNγ (100 ng/ml), for 16 hours. Keratinocytes which are non-stressed, i.e. which are not placed in contact with the chemical substances mimicking a microbial attack, are used in a model of reconstructed epidermis.
After 16 hours, the supernatants are collected and the cells are dry frozen at −80° C. after a rinsing with PBS.
The total RNAs are extracted with the aid of a 96-wells fluo extraction kit on silica columns and are determined on a 96-wells spectrophotometer at 260 and 280 nm. The RNAs are diluted at 5 ng/μl.
The one-step qualitative RT-PCR is carried out on 50 ng of RNA (initial) in 96 wells, on actin, hBD2 and hBD3. The primers are used at 0.5 μM and are from the literature: hBD2sense: 5′-[…]-3′; hBD2antisense: 5′-GGAGCCCJTlCTGMTC CGCA-3′ (Harder J. et al., A peptide antibiotic from human skin. Nature 1997; 387: 861); hBD3sense: 5′-[…]-3′, hBD3 antisense: 5′-[…] […]-3′; actin sense: 5′-[…]-3′, actin antisense: 5′-[…]lTTC-3′ (Harder J. et al., Isolation and characterization of hBD3, a novel human inducible peptide antibiotic. J. Biol. Chem. 2001; 276: 5707-5713).
The samples are placed in a thermocycler and following a common program of amplification: 50° C., 30 mins; 94° C., 2 mins; (94° C., 30 secs; 60° C., 30 sec; 68° C., 30 sec) 32 cycles for the defensins and 30 cycles for the actin; 72° C., 10 min; 14° C., infinity.
After amplification, the products are mixed at the rate of 3 μl of products of amplification of actin+6 μl of products of amplification of hBD2+6 μl of products of amplification of hBD3. 5 μl of a mixture of filler buffer and water (2/3) are added and the final 20 μl are deposited on a pre-poured 2% agarose gel. The samples migrate in 30 minutes and the bands are visualized under UV in a black chamber and are photographed digitally.
(§1) The photographs of the gels are analyzed by an image treatment software which quantifies the intensity of the bands. The ratios of intensity of the hBD2/actin and hBD3/actin bands are compared on the one hand between the monolayer model and the 3D model (reconstructed epidermis) in a non-stressed condition, and, on the other hand, following the effect of a stress (cells treated with TNFβ or IFNγ).

[2] = system: reconstructed epidermis (foreskin keratinocytes); experiment: hBD2 and hBD3 expression (RT-PCR, band intensity vs actin) in 3D reconstructed epidermis; format: cell-based, human; conditions: 100 ng/ml, 24 hours
Description: At the end of experimentation, the reconstructed epidermis are treated in the following manner:
1 sample undergoes no treatment (model comprising reference cells=negative control).
1 sample undergoes no treatment with the actives but undergoes various types of stress at the end of culture (model comprising stressed cells=positive control), e.g. incubation in the presence of TNFα at 100 ng/ml, IFN γ100 ng/ml.
1 sample undergoes the treatment with the active (1% in the culture medium for 24 hours) and then a stress (equivalent to the positive control).
The RNAs are diluted at 5 ng/μl and are treated as described above.
as §1

Row | Substance | HBD2, ratio of intensity of the hBD2/actin bands [1] | HBD3, ratio of intensity of the hBD3/actin bands [1] | HBD2, ratio of intensity of the hBD2/actin bands [2] | HBD3, ratio of intensity of the hBD3/actin bands [2]
1 | IFNγ: molecule mimicking a microbial attack, used as stress | 0.450 | 0.370 | 0.581 | 0.492
2 | TNFα | 1.240 | 0.266 | 1.617 | 0.546
